# Experimental data published in patent US12241021B2, “Method for fracking of simulation of hydrocarbon bearing formation” (Fluid Energy Group Ltd., priority 2018, dated 2025).
# Experiment: Corrosion testing of 316 steel coupons with acidic fluids
# Conditions: for corrosion protection when used separately: alkyne alcohol or cinnamaldehyde alone in the inhibitor
# Excerpt: Corrosion inhibitor compositions according to preferred embodiments of the present invention were exposed to corrosion testing. Various steel grades (stainless steel and carbon steel) were subjected to acid compositions comprising corrosion inhibitors according to the present invention against known corrosion inhibitors to the listed compositions for various periods of time at varying temperatures. A desirable corrosion inhibition result was one where the lb/ft2 corrosion number is at or below 0.05. More preferably, that number is at or below 0.02.
# 33% HCl; MEA in a 5.5:1 ratio and 50% HCl; MEA in a 5.5:1 ratio indicate the volume amount of the original concentration of a stock solution containing HCl and Monoethanolamine in a ratio of 5.5:1. The HCl loading of a 33% HCl; MEA in a 5.5:1 ratio is approximately 6.5% HCl. The HCl loading of 50% HCl; MEA in a 5.5:1 ratio is approximately 10% HCl.
SMILES,prevention of pitting (higher temperatures (even 110° C. to 120° C.)),corrosion protection when used separately,"film forming, protection of stainless steel (at these temperatures (90° C. to 120° C.))"
"CC(C)=CCCC(C)=CC=O (racemic) [Citral, (±)-3,7-Dimethyl-2,6-octadienal]",some effectiveness for the prevention of pitting,,
O=CC=Cc1ccccc1 [cinnamaldehyde],,did not provide corrosion protection sufficient,effective film former
C#CCO [propargyl alcohol],,did not provide corrosion protection sufficient,
